Source: ChEMBL document CHEMBL4842364 (J Med Chem, 2021)
Active and inactive are the calls of the source. The rule behind the calls is not given here.

Assays:
[1] = biological target: Cytochrome P450 3A4 (Homo sapiens, UniProt P08684); test: Inhibition of CYP3A4 (unknown origin); format: ADME
[2] = biological target: T1, Mitogen-activated protein kinase kinase kinase 3 (Homo sapiens) (UniProt Q99759); test: Inhibition of MAP3K3 (unknown origin) at 1 uM relative to control
T1 sequence (whole entry): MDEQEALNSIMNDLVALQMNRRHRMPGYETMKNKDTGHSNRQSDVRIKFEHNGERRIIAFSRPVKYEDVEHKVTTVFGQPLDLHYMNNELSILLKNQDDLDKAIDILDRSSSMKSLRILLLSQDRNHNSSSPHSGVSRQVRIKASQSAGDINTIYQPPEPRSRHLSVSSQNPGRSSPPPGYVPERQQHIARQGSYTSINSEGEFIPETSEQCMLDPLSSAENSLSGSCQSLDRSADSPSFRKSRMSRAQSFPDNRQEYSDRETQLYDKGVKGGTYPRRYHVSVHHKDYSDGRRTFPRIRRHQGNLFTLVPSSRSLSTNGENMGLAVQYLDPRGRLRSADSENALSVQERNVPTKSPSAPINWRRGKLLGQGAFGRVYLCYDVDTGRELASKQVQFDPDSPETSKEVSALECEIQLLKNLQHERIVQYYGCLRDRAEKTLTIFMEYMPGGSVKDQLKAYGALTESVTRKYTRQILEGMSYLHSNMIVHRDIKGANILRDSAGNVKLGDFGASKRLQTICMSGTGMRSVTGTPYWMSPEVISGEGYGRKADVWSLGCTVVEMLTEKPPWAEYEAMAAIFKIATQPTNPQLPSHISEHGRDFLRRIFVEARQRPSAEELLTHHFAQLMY

[3] = biological target: T2, Mitogen-activated protein kinase kinase kinase 19 (Homo sapiens, UniProt Q56UN5); test: Inhibition of YSK4 (unknown origin)
T2 sequence (Q56UN5 whole entry): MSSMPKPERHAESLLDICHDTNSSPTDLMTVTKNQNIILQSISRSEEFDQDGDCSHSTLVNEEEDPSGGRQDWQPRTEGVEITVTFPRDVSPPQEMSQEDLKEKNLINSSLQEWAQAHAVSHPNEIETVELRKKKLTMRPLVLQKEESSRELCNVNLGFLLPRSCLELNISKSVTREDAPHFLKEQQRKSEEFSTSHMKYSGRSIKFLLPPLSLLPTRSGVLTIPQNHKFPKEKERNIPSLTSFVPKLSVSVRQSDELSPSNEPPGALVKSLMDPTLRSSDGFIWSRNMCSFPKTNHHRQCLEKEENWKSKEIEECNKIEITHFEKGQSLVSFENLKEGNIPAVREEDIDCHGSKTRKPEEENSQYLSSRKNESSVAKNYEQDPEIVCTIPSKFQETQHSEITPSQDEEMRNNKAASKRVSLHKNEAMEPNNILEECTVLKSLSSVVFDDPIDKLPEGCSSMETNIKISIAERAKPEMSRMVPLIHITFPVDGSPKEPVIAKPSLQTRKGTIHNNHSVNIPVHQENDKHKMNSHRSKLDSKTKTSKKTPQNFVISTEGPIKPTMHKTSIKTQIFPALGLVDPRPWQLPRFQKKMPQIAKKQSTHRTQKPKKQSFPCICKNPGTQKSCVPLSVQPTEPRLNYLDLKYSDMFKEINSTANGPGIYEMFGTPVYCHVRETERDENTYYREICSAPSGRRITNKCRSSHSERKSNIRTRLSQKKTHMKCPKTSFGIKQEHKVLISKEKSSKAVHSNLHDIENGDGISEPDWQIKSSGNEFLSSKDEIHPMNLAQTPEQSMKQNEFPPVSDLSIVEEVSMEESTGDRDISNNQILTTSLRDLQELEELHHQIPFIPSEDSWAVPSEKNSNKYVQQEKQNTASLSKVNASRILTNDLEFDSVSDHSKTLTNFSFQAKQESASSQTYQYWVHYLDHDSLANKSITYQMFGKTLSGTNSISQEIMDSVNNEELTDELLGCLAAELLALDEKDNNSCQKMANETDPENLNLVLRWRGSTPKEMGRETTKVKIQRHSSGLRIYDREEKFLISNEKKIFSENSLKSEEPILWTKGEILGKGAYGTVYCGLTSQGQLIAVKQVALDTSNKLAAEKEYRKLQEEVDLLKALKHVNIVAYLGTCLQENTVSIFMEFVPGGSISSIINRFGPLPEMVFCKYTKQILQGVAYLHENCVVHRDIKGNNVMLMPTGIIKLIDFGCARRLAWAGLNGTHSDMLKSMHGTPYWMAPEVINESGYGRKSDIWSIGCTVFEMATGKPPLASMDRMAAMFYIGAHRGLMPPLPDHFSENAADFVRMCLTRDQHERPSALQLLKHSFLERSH

[4] = Intrinsic clearance in human hepatocytes; format: ADME, cell-based, Hepatocyte; conditions: read-out: CLH
[5] = Cmax in Beagle dog at 10 mg/kg, po measured upto 24 hrs by LC-MS/MS analysis; format: ADME, organism-based, Canis lupus familiaris; set-up: route oral, dose 10 mg/kg, time <=24; conditions: in vivo
[6] = Half life in Beagle dog at 3 mg/kg, iv measured upto 24 hrs by LC-MS/MS analysis; format: ADME, organism-based, Canis lupus familiaris; conditions: in vivo
[7] = Oral bioavailability in Beagle dog at 10 mg/kg measured upto 24 hrs by LC-MS/MS analysis; format: ADME, organism-based, Canis lupus familiaris; conditions: in vivo
[8] = system: A-427; test: Antitumor activity against human A-427 cells xenografted in SCID mouse assessed as reduction in tumor growth at 80 mg/kg, po administered once daily for 28 days and measured twice per weeks; format: functional, organism-based; conditions: time 28.0 day

Sequence of Cytochrome P450 3A4 (P08684 whole entry): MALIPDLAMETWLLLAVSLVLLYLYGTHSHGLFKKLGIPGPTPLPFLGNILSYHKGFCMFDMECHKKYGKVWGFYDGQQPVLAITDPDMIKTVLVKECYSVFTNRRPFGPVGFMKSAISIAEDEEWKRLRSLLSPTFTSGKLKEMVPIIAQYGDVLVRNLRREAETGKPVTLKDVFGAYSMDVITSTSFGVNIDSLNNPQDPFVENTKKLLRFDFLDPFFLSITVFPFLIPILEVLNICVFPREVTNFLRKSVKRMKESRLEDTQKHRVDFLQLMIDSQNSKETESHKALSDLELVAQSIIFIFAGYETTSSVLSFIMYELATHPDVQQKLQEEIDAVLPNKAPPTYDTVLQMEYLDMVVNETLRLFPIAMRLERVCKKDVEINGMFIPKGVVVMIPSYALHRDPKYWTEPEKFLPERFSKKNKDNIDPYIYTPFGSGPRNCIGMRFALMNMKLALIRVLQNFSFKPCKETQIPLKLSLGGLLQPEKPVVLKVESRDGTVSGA

- IC50 [1]: 7 µM
- inhibition [2]: 75%
- IC50 [3]: 0.059 µM
- CLint scaled [4]: < 18 mL/min/kg
- Cmax [5]: 2100 nM
- half-life [6]: 1.4 h
- bioavailability [7]: 142%
Structure (SMILES): C=CCn1c(=O)c2cnc(Nc3ccc(N4CCN(C)CC4)cc3)nc2n1-c1ccc2c(n1)C(O)(CC)CC2 (racemic)
- Activity [8]: Active
